pIC50: −log10 of the molar value.
Legend:
SR [1] = assay: Cytotoxicity against human SR cells assessed as growth inhibition after 48 hrs by sulforhodamine B assay; format: functional; conditions: for CC50: read-out: LC50 (the source's name)
HT-29 [2] = assay: Cytotoxicity against human HT-29 cells assessed as growth inhibition after 48 hrs by sulforhodamine B assay; format: functional; conditions: HT-29, 48 h
SF-539 = assay: Cytotoxicity against human SF539 cells assessed as growth inhibition after 48 hrs by sulforhodamine B assay; format: functional; conditions: SF-539, 48 h
Malme-3M = assay: Cytotoxicity against human MALME-3M cells assessed as growth inhibition after 48 hrs by sulforhodamine B assay; format: functional
SK-MEL-2 = assay: Cytotoxicity against human SK-MEL-2 cells assessed as growth inhibition after 48 hrs by sulforhodamine B assay; format: functional; conditions: SK-MEL-2, 48 h
UACC-257 = assay: Cytotoxicity against human UACC257 cells assessed as growth inhibition after 48 hrs by sulforhodamine B assay; format: functional; conditions: UACC-257, 48 h
OVCAR-5 = assay: Cytotoxicity against human OVCAR5 cells assessed as growth inhibition after 48 hrs by sulforhodamine B assay; format: functional; conditions: OVCAR-5, 48 h
ACHN = assay: Cytotoxicity against human ACHN cells assessed as growth inhibition after 48 hrs by sulforhodamine B assay; format: functional
BT-549 [3] = assay: Cytotoxicity against human BT549 cells assessed as growth inhibition after 48 hrs by sulforhodamine B assay; format: functional; conditions: BT-549, 48 h
MDA-MB-231 = assay: Cytotoxicity against human MDA-MB-231 cells assessed as growth inhibition after 48 hrs by MTT assay; format: functional, cell-based; conditions: MDA-MB-231, 48 h
786-0 [4] = assay: Cytotoxicity against human 786-0 cells assessed as cell growth at 0.01 uM after 48 hrs by sulforhodamine B assay relative to control; format: functional; conditions: 786-0, 48 h, read-out: Activity
NCI-H226 = assay: Cytotoxicity against human NCI-H226 cells assessed as cell growth at 0.01 uM after 48 hrs by sulforhodamine B assay relative to control; format: functional; conditions: NCI-H226, 48 h, read-out: Activity
SN12C = assay: Cytotoxicity against human SN12C cells assessed as cell growth at 0.01 uM after 48 hrs by sulforhodamine B assay relative to control; format: functional; conditions: read-out: Activity
BT-549 [5] = assay: Cytotoxicity against human BT549 cells assessed as cell growth at 0.01 uM after 48 hrs by sulforhodamine B assay relative to control; format: functional; conditions: BT-549, 48 h, read-out: Activity
HL-60(TB) [6] = assay: Cytotoxicity against human HL-60(TB) cells assessed as cell growth at 0.1 uM after 48 hrs by sulforhodamine B assay relative to control; format: functional; conditions: HL-60, 48 h, read-out: Activity
U-251 = assay: Cytotoxicity against human U251 cells assessed as cell growth at 0.1 uM after 48 hrs by sulforhodamine B assay relative to control; format: functional; conditions: U-251, 48 h, read-out: Activity
M14 [7] = assay: Cytotoxicity against human M14 cells assessed as cell growth at 0.1 uM after 48 hrs by sulforhodamine B assay relative to control; format: functional; conditions: M14, 48 h, read-out: Activity
NCI/ADR-RES = assay: Cytotoxicity against human NCI/ADR-RES cells assessed as cell growth at 0.1 uM after 48 hrs by sulforhodamine B assay relative to control; format: functional; conditions: read-out: Activity
Hs-578T = assay: Cytotoxicity against human Hs 578T cells assessed as cell growth at 0.1 uM after 48 hrs by sulforhodamine B assay relative to control; format: functional; conditions: read-out: Activity
CCRF-CEM = assay: Cytotoxicity against human CCRF-CEM cells assessed as cell growth at 1 uM after 48 hrs by sulforhodamine B assay relative to control; format: functional; conditions: read-out: Activity
HOP-62 = assay: Cytotoxicity against human HOP62 cells assessed as cell growth at 1 uM after 48 hrs by sulforhodamine B assay relative to control; format: functional; conditions: HOP-62, 48 h, read-out: Activity
HT-29 [8] = assay: Cytotoxicity against human HT-29 cells assessed as cell growth at 1 uM after 48 hrs by sulforhodamine B assay relative to control; format: functional; conditions: HT-29, 48 h, read-out: Activity
M14 [9] = assay: Cytotoxicity against human M14 cells assessed as cell growth at 1 uM after 48 hrs by sulforhodamine B assay relative to control; format: functional; conditions: M14, 48 h, read-out: Activity
SK-MEL-28 = assay: Cytotoxicity against human SK-MEL-28 cells assessed as cell growth at 1 uM after 48 hrs by sulforhodamine B assay relative to control; format: functional; conditions: SK-MEL-28, 48 h, read-out: Activity
SR [10] = assay: Cytotoxicity against human SR cells assessed as cell growth at 10 uM after 48 hrs by sulforhodamine B assay relative to control; format: functional; conditions: read-out: Activity
NCI-H522 [11] = assay: Cytotoxicity against human NCI-H522 cells assessed as cell growth at 10 uM after 48 hrs by sulforhodamine B assay relative to control; format: functional; conditions: NCI-H522, 48 h, read-out: Activity
RXF 393 = assay: Cytotoxicity against human RXF393 cells assessed as cell growth at 10 uM after 48 hrs by sulforhodamine B assay relative to control; format: functional; conditions: RXF 393, 48 h, read-out: Activity
HL-60(TB) [12] = assay: Cytotoxicity against human HL-60(TB) cells assessed as cell growth at 100 uM after 48 hrs by sulforhodamine B assay relative to control; format: functional; conditions: HL-60, 48 h, read-out: Activity
RPMI-8226 = assay: Cytotoxicity against human RPMI8226 cells assessed as cell growth at 100 uM after 48 hrs by sulforhodamine B assay relative to control; format: functional; conditions: RPMI-8226, 48 h, read-out: Activity
NCI-H23 = assay: Cytotoxicity against human NCI-H23 cells assessed as cell growth at 100 uM after 48 hrs by sulforhodamine B assay relative to control; format: functional; conditions: NCI-H23, 48 h, read-out: Activity
NCI-H522 [13] = assay: Cytotoxicity against human NCI-H522 cells assessed as cell growth at 100 uM after 48 hrs by sulforhodamine B assay relative to control; format: functional; conditions: NCI-H522, 48 h, read-out: Activity
SW-620 = assay: Cytotoxicity against human SW620 cells assessed as cell growth at 100 uM after 48 hrs by sulforhodamine B assay relative to control; format: functional; conditions: SW-620, 48 h, read-out: Activity
M14 [14] = assay: Cytotoxicity against human M14 cells assessed as cell growth at 100 uM after 48 hrs by sulforhodamine B assay relative to control; format: functional; conditions: M14, 48 h, read-out: Activity
IGROV-1 = assay: Cytotoxicity against human IGROV1 cells assessed as cell growth at 100 uM after 48 hrs by sulforhodamine B assay relative to control; format: functional; conditions: IGROV-1, 48 h, read-out: Activity
786-0 [15] = assay: Cytotoxicity against human 786-0 cells assessed as cell growth at 100 uM after 48 hrs by sulforhodamine B assay relative to control; format: functional; conditions: 786-0, 48 h, read-out: Activity

With `COc1cc(-c2cc(/C=C/C(=O)c3ccc(F)c(F)c3)[nH]n2)cc(OC)c1OC` the TGI (SR [1]) was over 100 µM, the CC50 (SR [1]) was over 100 µM and the LC50 (HT-29 [2]) was 40.8 µM. For the same molecule, the TGI (HT-29 [2]) was 6.46 µM, the LC50 (concentration killing 50% of cells) (SF-539) was 70 µM and the TGI (SF-539) was 17.7 µM. It also gave an LC50 (Malme-3M) of over 100 µM, a TGI (Malme-3M) of 9.4 µM and an LC50 (concentration killing 50% of cells) (SK-MEL-2) of 41.1 µM. The TGI (SK-MEL-2) was 5.89 µM, the LC50 (UACC-257) was over 100 µM and the TGI (UACC-257) was 6.28 µM. It also gave an LC50 (OVCAR-5) of over 100 µM, a TGI (OVCAR-5) of 33.8 µM and an LC50 (ACHN) of over 100 µM. The TGI (ACHN) was over 100 µM, the LC50 (concentration killing 50% of cells) (BT-549 [3]) was 79.5 µM and the TGI (BT-549 [3]) was 19.3 µM. It also gave a pIC50 (MDA-MB-231) of 5.82, a growth at 0.01 µM (786-0 [4]) of 95% and a growth at 0.01 µM (NCI-H226) of 99%. For the same molecule, the growth at 0.01 µM (SN12C) was 95%, the growth at 0.01 µM (BT-549 [5]) was 101% and the growth at 0.1 µM (HL-60(TB) [6]) was 93%. The growth at 0.1 µM (U-251) was 96%, the growth at 0.1 µM (M14 [7]) was 91% and the growth at 0.1 µM (NCI/ADR-RES) was 98%. For the same molecule, the growth at 0.1 µM (Hs-578T) was 97%, the growth at 1 µM (CCRF-CEM) was 91% and the growth at 1 µM (HOP-62) was 94%. For the same molecule, the growth at 1 µM (HT-29 [8]) was 103%, the growth at 1 µM (M14 [9]) was 86% and the growth at 1 µM (SK-MEL-28) was 98%. It also gave a growth at 10 µM (SR [10]) of 11%, a growth at 10 µM (NCI-H522 [11]) of -38% and a growth at 10 µM (RXF 393) of -20%. It also gave a growth at 100 µM (HL-60(TB) [12]) of -49%, a growth at 100 µM (RPMI-8226) of -36% and a growth at 100 µM (NCI-H23) of -27%. It also gave a growth at 100 µM (NCI-H522 [13]) of -53%, a growth at 100 µM (SW-620) of 1% and a growth at 100 µM (M14 [14]) of -38%. It also gave a growth at 100 µM (IGROV-1) of -1% and a growth at 100 µM (786-0 [15]) of -47%.
Molecule `COc1cc(-c2cc(/C=C/C(=O)c3ccc(Cl)c(Cl)c3)[nH]n2)cc(OC)c1OC` has a TGI (SR [1]) of 13.5 µM, a CC50 (SR [1]) of 96 µM and an LC50 (HT-29 [2]) of over 100 µM. It also gave a TGI (HT-29 [2]) of over 100 µM, an LC50 (concentration killing 50% of cells) (SF-539) of 57.8 µM and a TGI (SF-539) of 18.7 µM. It also gave an LC50 (Malme-3M) of over 100 µM, a TGI (Malme-3M) of over 100 µM and an LC50 (concentration killing 50% of cells) (SK-MEL-2) of 83.8 µM. For the same molecule, the TGI (SK-MEL-2) was 34.1 µM, the LC50 (UACC-257) was over 100 µM and the TGI (UACC-257) was 74 µM. For the same molecule, the LC50 (OVCAR-5) was over 100 µM, the TGI (OVCAR-5) was over 100 µM and the LC50 (ACHN) was over 100 µM. It also gave a TGI (ACHN) of over 100 µM, an LC50 (concentration killing 50% of cells) (BT-549 [3]) of 92.6 µM and a TGI (BT-549 [3]) of 29.3 µM. For the same molecule, the pIC50 (MDA-MB-231) was 5.68, the growth at 0.01 µM (786-0 [4]) was 95% and the growth at 0.01 µM (NCI-H226) was 103%. The growth at 0.01 µM (SN12C) was 98%, the growth at 0.01 µM (BT-549 [5]) was 89% and the growth at 0.1 µM (HL-60(TB) [6]) was 100%. The growth at 0.1 µM (U-251) was 95%, the growth at 0.1 µM (M14 [7]) was 94% and the growth at 0.1 µM (NCI/ADR-RES) was 96%. It also gave a growth at 0.1 µM (Hs-578T) of 105%, a growth at 1 µM (CCRF-CEM) of 71% and a growth at 1 µM (HOP-62) of 68%. For the same molecule, the growth at 1 µM (HT-29 [8]) was 96%, the growth at 1 µM (M14 [9]) was 107% and the growth at 1 µM (SK-MEL-28) was 114%. The growth at 10 µM (SR [10]) was 8%, the growth at 10 µM (NCI-H522 [11]) was -72% and the growth at 10 µM (RXF 393) was 9%. It also gave a growth at 100 µM (HL-60(TB) [12]) of -33%, a growth at 100 µM (RPMI-8226) of -25% and a growth at 100 µM (NCI-H23) of 5%. It also gave a growth at 100 µM (NCI-H522 [13]) of -65%, a growth at 100 µM (SW-620) of -5% and a growth at 100 µM (M14 [14]) of 20%. For the same molecule, the growth at 100 µM (IGROV-1) was 9% and the growth at 100 µM (786-0 [15]) was -10%.
`COc1ccc(-c2cc(/C=C/C(=O)c3ccc4c(c3)OCO4)[nH]n2)cc1OC` was tested, and the GI50 (SR [1]) was 0.25 µM, the GI50 (HT-29 [2]) was 1.38 µM and the GI50 (SF-539) was 0.52 µM. The GI50 (Malme-3M) was 2.59 µM, the GI50 (SK-MEL-2) was 2.46 µM and the GI50 (UACC-257) was 2.16 µM. For the same molecule, the GI50 (OVCAR-5) was 1.76 µM, the GI50 (ACHN) was 1.59 µM and the GI50 (BT-549 [3]) was 1.44 µM. For the same molecule, the pIC50 (MDA-MB-231) was 5.64.

— ChEMBL document CHEMBL4138123, “Design, synthesis and biological evaluation of novel pyrazolochalcones as potential modulators of PI3K/Akt/mTOR pathway and inducers of apoptosis in breast cancer cells” (Eur J Med Chem, 2017)
